Test results from US20220031798A1, “METHODS AND COMPOSITIONS FOR THE TREATMENT OF OPIOID DEPENDENCE AND FOR THE TREATMENT OF PAIN” (Duke University, priority 2018, published 2022).
“Also recorded” adds a separate entry of the source. Residues, ends and D or L forms follow the SMILES beside them.

Tests used:
[1] = animal models; cited from earlier work
[2] = humans; cited from earlier work
GluR1 = GluR1 expression in medial prefrontal cortex by Western blot; assay type: in vivo, rat; conditions: mPFC dissected at end of treatment
Procedure: The medial prefrontal cortex (mPFC) Brain Region is responsible for decision making in the context of reward (opioids) and penalty (withdrawal). Rats were treated with morphine in accordance with the methods of Example 1. The mPFC was dissected from rats at end of treatment and GluR1 expression levels were measured with a Western Blot test.

morphine-dependent rats = assay: Withdrawal-precipitated hyperalgesia, von Frey test of pain sensitivity; assay type: in vivo, rat
Excerpt: FIG. 6. Schematic for withdrawal-precipitated hyperalgesia studies and schematic for von Frey test of pain sensitivity.
There was no difference in hyperalgesia caused by morphine withdrawal before treatment; there was significant expression of naloxone-precipitated hyperalgesia in morphine dependent animals.

[3] = animal models (Moskal et al., 2016); cited from earlier work
[4] = test system: morphine-dependent Sprague-Dawley rats; assay: Naloxone-precipitated opioid withdrawal signs after 5-day morphine regimen; assay type: in vivo, rat; conditions: for Withdrawal signs after naloxone challenge on Day 9: Study 2: adolescent male and female rats, 5 days morphine, then 3 days ketamine 1 mg/kg bid or rapastinel 5 mg/kg alternate days i.p., naloxone 1 mg/kg; for Withdrawal signs after naloxone challenge on day 9, adolescent vs adult: Study 3: adolescent and adult rats
Procedure: Male and female adolescent and adult Sprague-Dawley rats (PN 28-30 and PN 60-75) from Charles River Laboratories were treated with a 5-day, increasing dose morphine regimen (5 mg/kg bid, increasing 5 mg/kg/day to 25 mg/kg) to induce opioid dependency. Animals were group-housed in a 12/12 light/dark cycle with free access to water and standard lab chow. Agents were administered by intraperitoneal injection. In Study 1, animals received morphine (25 mg/kg) on day 6 followed 1 hour later by a naloxone challenge (1 mg/kg) and withdrawal behaviors were quantified as described by Gellert and Holtzman (J Pharmacol Exp Ther. 1978; 205(3):536-546). A second morphine/naloxone challenge was given 21 days later (study day 27). In Study 2 (see FIG. 1), male and female adolescent rats received the same morphine treatment, but on day 6 they received naloxone only (1 mg/kg) to precipitate withdrawal and withdrawal signs (wet dog shakes, diarrhea, mastication, salivation, ptosis and abnormal posture) were assessed as in Study 1. Then animals received saline, ketamine (1 mg/kg, bid) or rapastinel (5 mg/kg on alternate days). On day 9, animals received a second naloxone challenge (1 mg/kg) without a previous morphine treatment, and withdrawal signs were quantified to measure efficacy of ketamine and rapastinel. Study 3 compared the ability of rapastinel to accelerate the loss of opioid withdrawal signs in adult and adolescent rats and Study 4 compared rapastinel effects in male and female adults. Treatment results were analyzed by sequential 3-way (age×sex×treatment) and 1 way (treatment) ANOVA using NCSS followed by post-hoc Fishers LSD multiple comparison test to compare differences between groups. All experiments were approved by the Duke University IACUC and conducted in accordance with the NIH Guide for the Care and Use of Laboratory Animals.
Opioid withdrawal: Animals are treated with saline or naloxone as described. Ten minutes later they are scored by a modification of the Gellert/Holtzman scale for wet dog shakes, diarrhea, mastication, salivation, ptosis and abnormal posture.

[5] = test system: adult male and female rats; assay: Relapse to morphine conditioned place preference (CPP); assay type: in vivo, rat; conditions: rapastinel 5 mg/kg during extinction days 6-9 and before relapse test, morphine 2.5 mg/kg
Procedure: CPP and extinction were conducted in adult male and female rats with a biased CPP procedure adapted from Mueller et al. (Mueller et al., Behavior. Brain Res 136: 389-397(2002)). CPP is conducted in a two-sided chamber. Side 1 had white walls and plexiglass flooring, and Side 2 had black walls and plastic mesh flooring (preferred side).
Rats went through a conditioned place preference procedure involving daily pairing with saline and morphine (2.5 mg/kg) on opposite sides of the CPP apparatus for 4 days. On habituation day (day 1), animals were allowed to explore the whole apparatus for 30 minutes. On days 2-4, rats were restricted to Side 1 for morphine (2.5 mg/kg sc) and Side 2 for saline (alternated am and pm daily). On day 5 they received a test of conditioning in which they were allowed to explore the whole apparatus. For the next 4 days (days 6-9) they received daily saline or rapastinel (5 mg/kg) 30 minutes before twice daily extinction trials in which animals received saline on both sides of the apparatus. They received an extinction test in which they were allowed to explore the entire apparatus on day 10, and then a relapse test on day 11 in which they received a dose of saline or rapastinel, followed by saline or 2.5 mg/kg of morphine and were allowed to explore the apparatus.
N=5 for rapastinel and 3 for saline.

SMILES: N[C@@H]1CON=C1O [d-cycloserine]
- CPP extinction and naloxone place aversion [1]: facilitated CPP extinction and naloxone place aversion
- Half-life [2]: short half-life

SMILES: CN1CC[C@]23c4c5ccc(O)c4O[C@H]2[C@@H](O)C=C[C@H]3[C@H]1C5 [morphine]
- GluR1 expression in the mPFC (GluR1): higher expression of GluR1; also recorded: significantly (p<0.001) higher GluR1 expression

SMILES: C[C@@H](O)[C@H](N)C(=O)N1CCCC1C(=O)N1CCC[C@H]1C(=O)N[C@H](C(N)=O)[C@@H](C)O (stereo partly drawn) [Rapastinel, rapastinel] (HELM PEPTIDE1{T.[O=C(C1CCCN1[*:1])[*:2]].P.T.[am]}$$$$V2.0)
- Hyperalgesia scores (morphine-dependent rats; morphine-dependent rats, Day 9 following treatment): trend towards a return to baseline (SS) hyperalgesia scores; also recorded: blunts hyperalgesia
- Baseline (SS) hyperalgesia response (morphine-dependent rats; saline (morphine-naive) rats): does not alter baseline (SS) response
- Negative side effects during treatment [3]: has not been shown to produce any negative side effects
- Withdrawal signs after naloxone challenge on Day 9 [4]: extinguished naloxone-precipitated withdrawal; also recorded: caused an enhanced loss of opioid withdrawal signs; also recorded: accelerated loss of withdrawal signs
- Withdrawal signs after naloxone challenge on day 9, adolescent vs adult ([4]; 5 days morphine then 3 days saline or rapastinel): extinguished naloxone-precipitated withdrawal comparably in adolescent and adult rats; also recorded: accelerated extinction of opioid withdrawal at both ages; also recorded: significantly enhanced recovery from opioid dependence in both adolescent and adult rats
- Withdrawal signs after naloxone challenge on day 9, adolescent vs adult ([4]; 5 days morphine then 3 days saline or rapastinel, listed as rapastinel): effective
- Withdrawal signs after naloxone challenge on day 9, male vs female ([4]; Study 4: male and female rats, 5 days morphine then 3 days saline or rapastinel): extinguished naloxone-precipitated withdrawal comparably in male and female rats
- Difference in time spent on drug-paired side, day 11 (relapse test) vs day 10 (extinction trial) [5]: blocks relapse to conditioned place preference
- Difference in time spent on drug-paired side, day 11 (relapse test) vs day 10 (extinction trial) ([5]; listed as rapastinel): blunted morphine-induced relapse
- GluR1 expression in the mPFC (GluR1): no significant effect

SMILES: CNC1(c2ccccc2Cl)CCCCC1=O (stereo not drawn) [ketamine]
- Withdrawal signs after naloxone challenge on Day 9 [4]: not ketamine extinguished naloxone-precipitated withdrawal; also recorded: not ketamine caused an enhanced loss of opioid withdrawal signs; also recorded: not ketamine accelerated loss of withdrawal signs; also recorded: only marginally effective

SMILES: C=CCN1CC[C@]23c4c5ccc(O)c4O[C@H]2C(=O)CC[C@@]3(O)[C@H]1C5 [naloxone]
- Withdrawal response to morphine/naloxone challenge on Day 6 ([4]; Study 1: 5 days morphine, morphine 25 mg/kg then naloxone 1 mg/kg 1 hour later, adolescent and adult rats): elicited a robust withdrawal response
